Experimental data taken from ChEMBL document CHEMBL1148890, “Design, synthesis, and structure-activity relationship of carbamate-tethered aryl propanoic acids as novel PPARalpha/gamma dual agonists” (Bioorg Med Chem Lett, 2007).

Key:
[1] = target: T1, Peroxisome proliferator-activated receptor alpha (Homo sapiens, UniProt Q07869)
T1 sequence (Q07869 whole entry): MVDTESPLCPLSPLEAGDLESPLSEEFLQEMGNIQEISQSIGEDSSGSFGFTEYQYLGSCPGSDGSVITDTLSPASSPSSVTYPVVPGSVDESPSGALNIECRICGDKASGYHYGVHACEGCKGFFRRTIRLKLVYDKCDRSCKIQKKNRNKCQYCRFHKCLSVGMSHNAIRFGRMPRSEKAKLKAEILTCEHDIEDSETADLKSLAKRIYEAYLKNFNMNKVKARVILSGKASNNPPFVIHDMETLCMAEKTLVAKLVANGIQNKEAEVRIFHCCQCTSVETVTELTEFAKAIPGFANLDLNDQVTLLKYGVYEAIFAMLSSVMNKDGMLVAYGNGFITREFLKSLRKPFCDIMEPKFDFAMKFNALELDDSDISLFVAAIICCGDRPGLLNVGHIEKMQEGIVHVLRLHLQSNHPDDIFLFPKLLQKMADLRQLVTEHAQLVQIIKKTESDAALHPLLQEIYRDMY
Description: Agonist activity at human PPARalpha in CV1 cells by GAL4 transactivation assay after 24 hrs

[2] = target: T2, Peroxisome proliferator-activated receptor gamma (Homo sapiens, UniProt P37231)
T2 sequence (P37231 whole entry): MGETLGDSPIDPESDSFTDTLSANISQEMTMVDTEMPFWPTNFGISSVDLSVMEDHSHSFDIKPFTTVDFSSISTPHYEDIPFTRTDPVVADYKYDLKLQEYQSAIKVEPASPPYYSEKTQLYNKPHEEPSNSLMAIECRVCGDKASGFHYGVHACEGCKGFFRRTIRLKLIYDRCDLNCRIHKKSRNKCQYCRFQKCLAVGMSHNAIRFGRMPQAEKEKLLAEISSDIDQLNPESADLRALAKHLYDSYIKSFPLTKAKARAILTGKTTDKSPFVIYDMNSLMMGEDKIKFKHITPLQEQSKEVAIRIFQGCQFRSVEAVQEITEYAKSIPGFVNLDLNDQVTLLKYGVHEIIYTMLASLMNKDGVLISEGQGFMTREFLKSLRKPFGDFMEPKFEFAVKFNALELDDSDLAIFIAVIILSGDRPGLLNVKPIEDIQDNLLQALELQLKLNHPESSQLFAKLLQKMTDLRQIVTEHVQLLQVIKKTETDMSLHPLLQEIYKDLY
Description: Agonist activity at human PPARgamma in CV1 cells by GAL4 transactivation assay after 24 hrs

Row | SMILES | EC50 [1] [nM] | EC50 [2] [nM]
1 | CCO[C@H](Cc1ccc(CCC(OC(=S)NCCc2ccccc2)c2ccccc2)cc1)C(=O)O (some centres undefined) | 2770 | 1050
2 | CCCNC(=S)OC(CCc1ccc(C[C@H](OCC)C(=O)O)cc1)c1ccccc1 (some centres undefined) | 3940 | 3480
3 | CCO[C@@H](Cc1ccc(CCCOC(=S)NCc2ccccc2)cc1)C(=O)O | 1470 | 1400
4 | CCO[C@H](Cc1ccc(CCC(OC(=S)NCc2ccccc2)c2ccccc2)cc1)C(=O)O (some centres undefined) |  | 350
5 | CCO[C@@H](Cc1ccc(CCC(OC(=S)NCC2CCCCC2)c2ccccc2)cc1)C(=O)O (some centres undefined) | 10700 | 1060
6 | CCO[C@H](Cc1ccc(CCC(OC(=S)NCc2ccc(C(C)(C)C)cc2)c2ccccc2)cc1)C(=O)O (some centres undefined) | 380 | 140
7 | CCO[C@@H](Cc1ccc(CCC(OC(=O)NCc2ccccc2)c2ccccc2)cc1)C(=O)O (some centres undefined) | 6050 | 1420
8 | CCO[C@@H](Cc1ccc(CCC(OC(=S)NCc2ccc(C(C)(C)C)cc2)c2ccccc2)cc1)C(=O)O (some centres undefined) | 3270 | 160
9 | CCO[C@@H](Cc1ccc(CCC(OC(=S)NCc2ccccc2)c2ccccc2)cc1)C(=O)O (some centres undefined) |  | 580
10 | CCO[C@@H](Cc1ccc(CCC(O)c2ccccc2)cc1)C(=O)O (some centres undefined) | 1510 | 300
11 | CCO[C@@H](Cc1ccc(CCC(OC(=S)NCCc2ccccc2)c2ccccc2)cc1)C(=O)O (some centres undefined) | 880 | 490
12 | CCO[C@@H](Cc1ccc(CCC(OC(=S)Nc2ccccc2)c2ccccc2)cc1)C(=O)O (some centres undefined) | 5250 | 4580
13 | CCNC(=S)OC(CCc1ccc(C[C@H](OCC)C(=O)O)cc1)c1ccccc1 (some centres undefined) | 20400 | 5390
14 | Cc1ccc(C)c(OCCCC(C)(C)C(=O)O)c1 [GEMFIBROZIL] | 193000 | 
15 | CCCCNC(=S)OC(CCc1ccc(C[C@H](OCC)C(=O)O)cc1)c1ccccc1 (some centres undefined) | 7260 | 3600
16 | CCO[C@@H](Cc1ccc(OCC(OC(=S)NCc2ccccc2)c2ccccc2)cc1)C(=O)O (some centres undefined) | 6210 | 7170
